Data taken from US9110082B2, “Methods for the identification and treatment of patients sensitive to anti IGF-1R inhibition therapy” (MERCK SHARP & DOHME CORP., priority 2009, dated 2015).

Assays:
[1] = tested on: xenograft models with low levels of IGF-1R expression (SKMES & NCI-H520); experiment: Xenograft growth assessment, NSCLC models with low IGF-1R; format: in vivo, nu/nu mice; conditions: SKMES & NCI-H520 xenografts
Description: (§1) When tumors reached a size of ˜300 mm3 (Length*Width*Width*0.5), mice were randomized into treatment groups. […] Tumor weight was determined at termination. […] Mice were sacrificed 24 hr after the final dose.

[2] = tested on: NSCLC cell lines expressing high levels of IGF-1R (NCI-H2122, A549, NCI-H460); experiment: Xenograft growth assessment, NSCLC models with high IGF-1R; format: in vivo, nu/nu mice; conditions: NCI-H2122, A549, NCI-H460 xenografts; as compared to erlotinib
Description: as §1

NSCLC cell lines = experiment: Anchorage independent growth (soft agar colony formation) assay in a panel of NSCLC cell lines; format: cell-based, human
Description: (§2) All NSCLC cell lines were obtained from ATCC and maintained in 10% fetal bovine serum, FBS (Hyclone) containing media (DMEM or RPMI; Invitrogen Inc) supplemented with pen-strep (Invitrogen) at 37° C. according to the instructions from ATCC.
Soft agar assays were conducted in 96 well glass bottom plates (MATRICAL). Cells were seeded at a concentration of 3,000-9,000 cells per WELL in 100 μl RPMI 1640 (INVITROGEN) supplemented with 14% FBS and 0.3% (w/v) […] Agarose (Lonza Rockland, Inc) on top of a bottom layer of consisting of the same culture media supplemented with 0.8% agarose. […] Cells were incubated for 7-14 days before staining overnight with LAVA CELL(Active Motif). Colonies were quantified using an ISOCYTE laser scanning cytometer.

Colo699 cell line = experiment: Anchorage independent growth (soft agar) assay, Colo699; format: cell-based, human; conditions: LKB1-high cell line; IGF-1 over-expression
Description: as §2
Soft agar assays were conducted in 96 well glass bottom plates (MATRICAL). Cells were seeded at a concentration of 3,000-9,000 cells per WELL in 100 μl RPMI 1640 (INVITROGEN) supplemented with 14% FBS and 0.3% (w/v) […] Agarose (Lonza Rockland, Inc) on top of a bottom layer of consisting of the same culture media supplemented with 0.8% agarose. Compounds were added in 100μl of culture media supplemented after agarose had solidified. Cells were incubated for 7-14 days before staining overnight with LAVA CELL(Active Motif). Colonies were quantified using an ISOCYTE laser scanning cytometer.

22 NSCLC cell lines = conditions: growth inhibition assay; cited from earlier work

Substance | xenograft sensitivity [1] | xenograft sensitivity [2] | sensitivity (anchorage independent growth inhibition) of NSCLC cell lines expressing high levels of IGF-1R (NSCLC cell lines; 26 NSCLC cell lines, MK-0646 10 ug/ml, erlotinib 1 uM, IGF-1R high cell lines) | sensitivity in IGF-1R high cell lines expressing low levels of LKB1 (NSCLC cell lines; IGF-1R and LKB1 protein by RPPA) | MK-0646 sensitivity in LKB1-low cell lines (NSCLC cell lines; LKB1 protein not detectable by western blot (LKB1-low; n=11)) | sensitivity of Colo699 cell line (Colo699 cell line) | sensitivity of NSCLC cell lines to R1507 (22 NSCLC cell lines)
MK-0646: humanized antibody characterized as binding IGF-1R as well as the IR/IGF-1 hybrid receptor; described in U.S. Pat. No. 7,241,444 | did not show sensitivity | significant sensitivity | more sensitive | enriched | significantly enriched | very sensitive | –
R1507: fully human IgG1 monoclonal antibody directed against the extracellular portion of the human IGF-1R | – | – | – | – | – | – | none of the lines displayed “high sensitivity”
